Results from publication PMC12645191, “Dicarboxylate and dicarboxylic acid appended supramolecular self-associating amphiphiles as antimicrobial agents against high priority bacterial pathogens” (Organic & Biomolecular Chemistry, 2025).
Several values for one entry are separate records, joined by “and”; a condition that tells them apart may be missing. Identical values can stand only once.

Experiments:
[1] = quantitative (Q) 1H NMR spectroscopy, proportion of SSA becoming NMR silent (higher-order aggregates); format: physicochemical; conditions: ~112 mM, DMSO-d6 1.0% DCM
Method: To confirm the presence of higher order self-associative structures quantitative (Q) ^1H NMR spectroscopy studies were undertaken at 5.6 mM in D2O 5% EtOH. Here the ^1H NMR resonances attributed to the EtOH are used as an internal standard.
Table S1 – Overview of results of the quantitative (Q) 1H NMR studies for 1, 3, 5, 7 and 9
5.0 % EtOH . Values given in % represent the observed proportion of the SSA that has become
Table S2 – Overview of results of the quantitative (Q) 1H NMR studies for 2, 4, 6, 8 and 10
5.0 % EtOH. Values given in % represent the observed proportion of anion and cation that has

[2] = tensiometry: critical aggregate concentration (CAC) and surface tension; format: physicochemical
Method: As the (Q) ^1H NMR spectroscopy experiments conducted at 5.6 mM in a D2O 5.0% EtOH solution confirmed the presence of higher-order self-associated structures with solid-like properties, concentration dependent surface tension measurements, obtained through tensiometry, were used to calculate critical aggregate concentration (CAC). Here the CAC is defined as the point at which an increase in SSA concentration no longer decreases surface tension but instead results in the formation of higher-order self-associated structures.

[3] = dynamic light scattering (DLS) of SSA aggregates; format: physicochemical; conditions: 5.6 mM, H2O 5.0% EtOH, 298 K; listed as 7
Method: Dynamic light scattering (DLS) and zeta potential measurements in H2O 5.0% EtOH were used to determine the hydrodynamic diameter (dH) and stability of the higher-order SSA aggregates detected by (Q) ^1H NMR spectroscopy at 5.6 mM, Table 1. […] However, we are unable to confidently report a dH for 1 due to the instability of this system, which is supported by a zeta potential value of −26 mV, obtained for this SSA under the same experimental conditions. […] Due to the instability of these systems in the absence of solvent, attempts to further characterise these systems through SEM or AFM are not possible.[48]

P. aeruginosa PAO1 = test: inhibition of bacterial growth, OD600 after 20 h; format: cell-based, Pseudomonas aeruginosa; conditions: SSA 5.0 mM, 2.5% ethanol, negative = enhanced growth, listed as 7
Method: (§1) With the self-associative properties of 1–10 established, the antimicrobial activity of these SSAs were determined against a panel of clinically relevant, high-priority pathogens including: P. aeruginosa PAO1; Klebsiella pneumonia (K. pneumoniae) M6; E. coli NCTC 12923; Acinetobacter baumannii (A. baumannii) ATCC 17978; S. aureus ATCC 9144; Enterococcus faecalis (E. faecalis) NCTC 775; and Enterococcus faecium (E. faecium) NCTC 12204. […] However, it should be noted that the SSA stock solution was prepared in a H2O 5% EtOH solution, to ensure that the SSA aggregates formed were in line with those characterised within the scope of the SSA self-association studies.
(§2) Section 3: Biological methods
(§3) These methods were taken directly from UK Health and Security Office (UKHSA) standard […]
(§4) Preparation of Luria Broth media (LB): Yeast extract (5.0 g), tryptone (10.0 g) and sodium chloride (10.0 g) were dissolved in dH₂O (1.0 L) then divided into bottles and autoclaved.
(§5) Preparation of Luria Broth (LB) agar plates: Agar (6.0 g) was added to LB (400 mL) and autoclaved. Once cool, the LB agar was poured into sterile petri dishes under sterile conditions and allowed to set. LB plates were stored at 4 °C until use.
(§6) Preparation of bacterial plates: Sterile LB agar plates were streaked using streaked using the desired bacteria i) Pseudomonas aeruginosa (P.aeruginosa) PAO1, ii) Klebsiella pneumoniae (K. pneumoniae) M6 iii) E. coli NCTC 12923 and iv) Acinetobacter baumannii (A. baumannii) ATCC 17978 and Gram-positive i) Staphylococcus aureus (S. aureus) ATCC 9144 ii) Enterococcus faecalis (E. faecalis) NCTC 775 and iii) Enterococcus faecium (E. faecium ) NCTC 12204, then incubated at 37 °C overnight.
(§7) Preparation of Inoculum: An initial culture was made up by inoculating LB media (5 mL) with a single colony of bacteria under sterile conditions and incubated at 37 °C with shaking overnight. The following day, overnight bacterial cultures were subcultured into fresh LB medium to a starting OD600 of 0.01.
(§8) Preparation of 96 well microplate for MIC50: The 1:100 cell suspension (150 µL) was dispensed into individual wells under sterile conditions. SSAs (30 µL) were added to the wells to equal a total volume of 180 µL in the wells. Six repeats of each concentration for each SSA were created each plate. The plates were sealed using parafilm, then incubated at 37 °C in a microplate reader for 20 hours. OD600 endpoint data was used to generate growth curves. […]

K. pneumoniae M6 = test: inhibition of bacterial growth, OD600 after 20 h; format: cell-based, Klebsiella pneumoniae; conditions: SSA 5.0 mM, 2.5% ethanol, negative = enhanced growth, listed as 7
Method: as §1, §2, §3, §4, §5, §6, §7, §8

E. coli NCTC 12923 = test: inhibition of bacterial growth, OD600 after 20 h; format: cell-based, Escherichia coli; conditions: SSA 5.0 mM, 2.5% ethanol, negative = enhanced growth, listed as 7
Method: as §1, §2, §3, §4, §5, §6, §7, §8

A. baumannii ATCC 17978 = test: inhibition of bacterial growth, OD600 after 20 h; format: cell-based, Acinetobacter baumannii; conditions: SSA 5.0 mM, 2.5% ethanol, negative = enhanced growth, listed as 7
Method: as §1, §2, §3, §4, §5, §6, §7, §8

S. aureus ATCC 9144 = test: inhibition of bacterial growth, OD600 after 20 h; format: cell-based, Staphylococcus aureus; conditions: SSA 5.0 mM, 2.5% ethanol, negative = enhanced growth, listed as 7
Method: as §1, §2, §3, §4, §5, §6, §7, §8

E. faecalis NCTC 775 = test: inhibition of bacterial growth, OD600 after 20 h; format: cell-based, Enterococcus faecalis; conditions: SSA 5.0 mM, 2.5% ethanol, negative = enhanced growth
Method: as §1, §2, §3, §4, §5, §6, §7, §8

E. faecium NCTC 12204 = test: inhibition of bacterial growth, OD600 after 20 h; format: cell-based, Enterococcus faecium; conditions: SSA 5.0 mM, 2.5% ethanol, negative = enhanced growth, listed as 7
Method: as §1, §2, §3, §4, §5, §6, §7, §8

Caco-2 cell line = test: bi-directional permeability in Caco-2 cell line; format: in vitro ADME, human
Method: Metabolic stability was assessed in mouse and rat liver microsomes. Microsomes are subcellular fractions of hepatocytes and contain CYP450s, the predominant enzymes involved in first-pass metabolism.[66] […] A plasma protein binding assay was performed to assess the extent of compound binding to plasma proteins. This is key as only unbound compound is free to distribute and exert a pharmacological effect. […] To assess the potential for this sub-class of SSAs to be developed as drugs for oral administration, Caco-2 permeability assays were also performed, as a cellular model indicative of human intestinal permeability. […]
Sample analysis was by electrospray ionisation. […]
Bi-directional Permeability in Caco-2 Cell Line:
The bi-directional permeability in Caco-2 cell lines was determined by seeding cells onto an HTS Transwell plate. Cells were cultivated for 14-18 days in a cell culture incubator at 37 °C, 5 % CO2, 95 % relative humidity. Cell culture medium was replaced every other day. To assess monolayer integrity the transepithelial electrical resistance (TEER) across the monolayer was measured using Millicell Epithelial volt-ohm meter prior to assay and Lucifer yellow (LY) fluorescence measurement post-assay.
Test and control compounds were prepared in DMSO and diluted in Hank’s Balanced Saline […]
Solution (HBSS, pH 7.4) to a final concentration of 5 or 10 µM. Compound was added to the […]
donor compartment of the transwell plate for both apical to basolateral (A>B) and basolateral […]
to apical (B>A) measurements, with blank HBSS being added to the receiver compartment.
The transwell plate was then incubated at 37 °C, 5 % CO2 for 2 hours.

[4] = Caco-2, 5 or 10 µM, HBSS pH 7.4, 2 hours

SMILES | (Q) 1H NMR, proportion NMR silent, SSA acid or anion [1] | CAC (footnote in place of a value) ([2]; H2O 5.0% EtOH, 298 K) | ST at CAC ([2]; H2O 5.0% EtOH, 298 K, listed as 7) | Surface tension at CAC ([2]; H2O/5.0 % EtOH, listed as 7) | DLS Peak 2 maxima [3] | Polydispersity index (%) [3] | dH (DLS intensity distribution peak 1 maxima) [3] | Percentage inhibition of bacterial growth, PAO1 (P. aeruginosa) (P. aeruginosa PAO1) | Percentage inhibition of bacterial growth, M6 (K. pneumoniae) (K. pneumoniae M6) | Percentage inhibition of bacterial growth, NCTC 12923 (E. coli) (E. coli NCTC 12923) | Percentage inhibition of bacterial growth, ATCC 17978 (A. baumannii) (A. baumannii ATCC 17978) | Percentage inhibition of bacterial growth, ATCC 9144 (S. aureus) (S. aureus ATCC 9144) | inhibition at 5000 µM (E. faecalis NCTC 775; Enterococcus faecalis, NCTC775, 20 h, read-out: Percentage inhibition of bacterial growth, NCTC 775 (E. faecalis)) | Percentage inhibition of bacterial growth, NCTC 775 (E. faecalis) (E. faecalis NCTC 775; listed as 7) | Percentage inhibition of bacterial growth, NCTC 12204 (E. faecium) (E. faecium NCTC 12204) | Efflux Ratio (Caco-2 cell line; Caco-2) | Recovery (%) AP-BL (Caco-2 cell line; Caco-2) | Recovery (%) BL-AP (Caco-2 cell line; Caco-2) | Papp (A-B) (Caco-2 cell line; [4]) | Papp (B-A) (Caco-2 cell line; [4])
COc1ccc(NC(=O)N[C@@H](CC(=O)O)C(=O)O)cc1 [SSA 7] | 0% | ^b (CAC above the limit of solubility) | 55 mN m^−1 | 54.72 mN/m | 5177 nm | 19.6 (± 1.7) % | 214 nm | -24.25% and −24% | 32.42% and 32% | 64.22% and 64% | 24.84% and 25% | 5.65% and 6% | 47.2% | 47% | 50.11% and 50% | – | – | – | – | –
C[C@H]1O[C@@H](O[C@H]2[C@@H](O)C[C@H](O[C@H]3[C@@H](O)C[C@H](O[C@H]4CC[C@@]5(C)[C@H](CC[C@@H]6[C@@H]5C[C@@H](O)[C@]5(C)[C@@H](C7=CC(=O)OC7)CC[C@]65O)C4)O[C@@H]3C)O[C@@H]2C)C[C@H](O)[C@@H]1O [Digoxin, reference compound] | – | – | – | – | – | – | – | – | – | – | – | – | – | – | – | 45.59 | 95.92% | 99.20% | 0.42 10-6, cm/s | 18.74 10-6, cm/s
